# Assay results published in publication PMC6642140, “Boosting NAD^+ with a small molecule that activates NAMPT” (Nature Communications, 2019).
# Assays:
# Format in all cases: biochemical
# [1] = biological target: T1, NAMPT (nicotinamide phosphoribosyltransferase) (Homo sapiens, UniProt P43490); experiment: spin desalting column with LC-MS detection of bound compound; EC50 from NMN production activation assay
# T1 construct: recombinant, N-terminal His tag removed with thrombin
# Excerpt: spin desalting column with LC-MS detection of bound compound; EC50 from NMN production activation assay on NAMPT (nicotinamide phosphoribosyltransferase) | When NAMPT and SBI-797812 were mixed and applied to the column, SBI-797812 was detected in the column eluent
# [2] = biological target: T1, NAMPT (nicotinamide phosphoribosyltransferase); experiment: dose-dependent protein thermal shift and stimulation of NMN production
# [3] = biological target: T1, NAMPT (nicotinamide phosphoribosyltransferase); experiment: NMN production fluorescence assay at […] compound (slight inhibition)
# [4] = biological target: T1, NAMPT (nicotinamide phosphoribosyltransferase); experiment: NMN production LC-MS/MS assay with […] NAD+ (feedback inhibition)
# [5] = biological target: T1, NAMPT (nicotinamide phosphoribosyltransferase); experiment: LC-MS/MS of the reversible reaction; suppresses pHisNAMPT in western blot and blunts P3 production
# T1 sequence (P43490 whole entry): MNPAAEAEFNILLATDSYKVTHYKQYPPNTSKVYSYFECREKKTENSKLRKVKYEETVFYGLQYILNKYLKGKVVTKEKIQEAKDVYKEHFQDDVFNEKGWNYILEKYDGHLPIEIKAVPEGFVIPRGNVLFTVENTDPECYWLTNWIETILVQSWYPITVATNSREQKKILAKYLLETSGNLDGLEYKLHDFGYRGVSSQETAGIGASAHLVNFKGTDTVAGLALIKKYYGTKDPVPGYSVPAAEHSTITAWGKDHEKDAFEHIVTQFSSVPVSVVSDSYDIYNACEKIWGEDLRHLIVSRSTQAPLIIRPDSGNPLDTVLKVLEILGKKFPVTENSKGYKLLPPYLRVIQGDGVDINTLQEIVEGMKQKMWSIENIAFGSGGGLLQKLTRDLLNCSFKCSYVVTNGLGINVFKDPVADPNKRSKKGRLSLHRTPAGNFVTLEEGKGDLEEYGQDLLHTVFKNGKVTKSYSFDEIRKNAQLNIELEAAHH
compound,measurement,setting,value
O=C(NCc1ccncc1)Nc1ccc(S(=O)(=O)N2CC3CCC(C2)O3)cc1 [SBI-797812],EC50,[1],370 ± 60 nM
CCOC(=O)c1ccc(NC(=O)NCc2ccncc2)cc1 [SBI-136892],dose-dependent protein thermal shift and stimulation of NMN production,[2],"SBI-136892 (Fig. 1b), dose-dependently increased the NAMPT Tm (Supplementary Fig. 1a) and stimulated NAMPT-mediated NMN production"
O=C(NCc1ccccn1)Nc1ccc(S(=O)(=O)N2CC3CCC(C2)O3)cc1 [SBI-796950],NMN production fluorescence assay at 2 μM compound (slight inhibition),[3],"The SBI-797812 isomer with the 2-pyridyl group, SBI-796950 (Fig. 1b), slightly inhibited NMN production (Fig. 1c)."
NC(=O)c1ccc[n+]([C@@H]2O[C@H](COP(=O)([O-])OP(=O)(O)OC[C@H]3O[C@@H](n4cnc5c(N)ncnc54)[C@H](O)[C@@H]3O)[C@@H](O)[C@H]2O)c1 [NAD^+],NMN production LC-MS/MS assay with 250 μM NAD+ (feedback inhibition),[4],SBI-797812 relieved NAMPT inhibition mediated by NAD^+ (Fig. 2e).
NC(=O)c1ccc[n+]([C@@H]2O[C@H](COP(=O)([O-])O)[C@@H](O)[C@H]2O)c1 [NMN],LC-MS/MS of the reversible reaction; suppresses pHisNAMPT in western blot and bl,[5],"While the pHisNAMPT band was suppressed by NMN or PP, NAM or PRPP had no effect"
